Results from US10941121B2 (AZIENDA OSPEDALIERA UNIVERSITARIA SENESE, priority 2015, dated 2021).
pEC50, pIC50: −log10 of the molar value. Read-outs that look alike come from different tables or passages of the source.

Assays:
[1] = test system: Hepatitis C Virus (HCV) replicon system; experiment: HCV replicon system, luciferase method in LucUbiNeo-ET cells; details: for EC50: Hepatitis C virus, 48 h, read-out: EC50 (μM) HCV replicon system
[2] = Cytotoxicity, MTT method in LUNET cells; type: cell-based; details: human; MMT method in LUNET cells; read-out: CC50 (μM) non-infected cells
Experimental: Toxicity (CC50) was analysed in the Lunet/HuH7 cells by the addition of 10 μL of MTT (3-(4,5-dimethylthiazol-2-yl)-2,5-diphenyltetrazolium bromide) per well. After 4 h of incubation at 37° C. in a humidified atmosphere with 5% CO2, the amount of formazan produced was quantified spectrophotometrically at 550/620 nm (C. Pannecouque et al, Nature protocol 2008; 3 (3): 427-434). […] These assays were done in duplicate.

DDX3 Helicase [3] = target: T1, DDX3 Helicase (Homo sapiens, UniProt O00571); experiment: biochemical
JEV strain (NJ2008) = experiment: JEV infectious cell culture system, plaque formation assay in BHK-21 cells; details: Japanese encephalitis virus, BHK-21, read-out: JEV EC50
[4] = Cytotoxicity in the JEV cell culture system; details: hamster
[5] = test system: HIV-1 wild-type reference strain NL4-3; experiment: HIV-1 phenotypic assay, MT-2 cells then TZM-bl cells, luciferase; type: cell-based; details: Human immunodeficiency virus 1, NL43; first cycle in MT-2 cells, additional round in TZM-bl cells
[6] = test system: EBOV expressing GFP (EBOV/GFP); type: cell-based, Ebola virus
DDX3 Helicase [7] = target: T1, DDX3 Helicase; details: for IC50: read-out: ID50 (μM) against DDX3 Helicase, n.a. = compound not active
[8] = Parallel Artificial Membrane Permeability Assay (PAMPA); type: in vitro ADME; details: for Papp at 5 h, 0.5 mM: PAMPA, phosphatidylcholine in dodecane, pH 7.4, 5 h, room temperature, read-out: PAMPA Papp *10^−6 (cm/s) GI; for PAMPA membrane retention (RM %): value in brackets in the PAMPA cell
Experimental: Parallel Artificial Membrane Permeability Assay (PAMPA). Donor solution (0.5 mM) was prepared by diluting 1 mM dimethylsulfoxide (DMSO) compound stock solution using phosphate buffer (pH 7.4, 0.025 M). Filters were coated with 5 μL of a 1% (w/v) dodecane solution of phosphatidylcholine prepared from CHCl3 solution 10% w/v, for intestinal permeability. Donor solution (150 μL) was added to each well of the filter plate. To each well of the acceptor plate were added […] (50% DMSO in phosphate buffer). All compounds were tested in three different plates on different days. The sandwich was incubated for 5 h at room temperature under gentle shaking. After the incubation time, the plates were separated, and samples were taken from both receiver and donor sides and analyzed using LC with UV detection at 280 nm.
LC analysis were performed with a Varian Prostar HPLC system (Varian Analytical Instruments, USA) equipped with a binary pump with a manual injection valve and model Prostar 325 UV-VIS Detector.
Permeability (Papp) for PAMPA was calculated according to the following equation, obtained from Wohnsland and Faller and Sugano et al. equation with some modification in order to obtain permeability values in cm s^−1,
where VA is the volume in the acceptor well, VD is the volume in the donor well (cm^3), A is the “effective area” of the membrane (cm^2), t is the incubation time (s) and r the ratio between drug concentration in the acceptor and equilibrium concentration of the drug in the total volume (VD+VA). Drug concentration is estimated by using the peak area integration.
Membrane retentions (%) were calculated according to the following equation: […]
where r is the ratio between drug concentration in the acceptor and equilibrium concentration, D, A, and Eq represented drug concentration in the donor, acceptor and equilibrium solution, respectively.

[9] = test system: human liver microsome (HLM); experiment: Microsomal Stability Assay; details: human liver microsomes, 37 °C, 60 min, compound 50 μM; percentage of not metabolized compound
Water Solubility Assay = type: physicochemical; details: thermodynamic from solid
Experimental: Water Solubility Assay. Each solid compound (1 mg) was added to 1 mL of water. The samples were shaked in a shaker bath at room temperature for 24-36 h. The suspensions were filtered through a 0.45 μm nylon filter (Acrodisc), and the solubilized compound determined by LC-MS-MS assay. For each compound the determination was performed in triplicate.
For the quantification was used an LC-MS system consisted of a Varian apparatus (Varian Inc) including a vacuum solvent degassing unit, two pumps (212-LC), a Triple Quadrupole MSD (Mod. 320-LC) mass spectrometer with ES interface and Varian MS Workstation System Control Vers. 6.9 software. […] The flow rate was 0.2 mL min^−1 and injection volume was 5 μL. The instrument operated in positive mode and parameters were: detector 1850 V, drying gas pressure 25.0 psi, desolvation temperature 300.0° C., nebulizing gas 40.0 psi, needle 5000 V and shield 600 V. Nitrogen was used as nebulizer gas and drying gas. Collision induced dissociation was performed using Argon as the collision gas at a pressure of 1.8 mTorr in the collision cell.

[10] = Cytotoxicity in PBMC, CellTiter 96 MTS viability assay; type: cell-based; details: human, human primary PBMCs
HIV (PBMC) = experiment: HIV infectious cell culture system in PBMC, HIV-1 RNA in supernatant; details: Human immunodeficiency virus 1, PBMC, 72 h, read-out: EC50 HIV (PBMC) 72 h
[11] = Cytotoxicity in Huh7 cells, nuclei counts; details: human
[12] = experimental aqueous solubility, read-out: LogS (converted)
[13] = room temperature, 24-36 h, read-out: Aq. Solub.

T1 sequence (O00571 whole entry): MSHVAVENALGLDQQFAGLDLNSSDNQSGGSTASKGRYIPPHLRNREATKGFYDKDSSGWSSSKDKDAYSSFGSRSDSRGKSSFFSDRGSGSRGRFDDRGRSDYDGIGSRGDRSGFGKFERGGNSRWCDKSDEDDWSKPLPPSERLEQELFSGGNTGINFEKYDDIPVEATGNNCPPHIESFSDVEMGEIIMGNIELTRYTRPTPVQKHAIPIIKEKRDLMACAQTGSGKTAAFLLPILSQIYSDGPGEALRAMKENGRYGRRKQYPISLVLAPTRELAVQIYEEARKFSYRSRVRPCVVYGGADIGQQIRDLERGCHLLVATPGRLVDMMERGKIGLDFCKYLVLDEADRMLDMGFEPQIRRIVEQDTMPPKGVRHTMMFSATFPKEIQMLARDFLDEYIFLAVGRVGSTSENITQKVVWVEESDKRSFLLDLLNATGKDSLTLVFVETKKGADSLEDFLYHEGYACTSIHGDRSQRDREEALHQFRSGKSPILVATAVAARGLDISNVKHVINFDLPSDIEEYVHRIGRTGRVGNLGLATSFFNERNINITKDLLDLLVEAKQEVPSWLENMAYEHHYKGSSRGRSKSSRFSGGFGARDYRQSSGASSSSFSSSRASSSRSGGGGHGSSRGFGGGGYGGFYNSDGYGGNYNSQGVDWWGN

| Structure (SMILES) | EC50 [1] [µM] | CC50 [2] [µM] | pIC50 (DDX3 Helicase [3]) | pEC50 (JEV strain (NJ2008)) | CC50 [4] [µM] | pEC50 [5] | further results |
| --- | --- | --- | --- | --- | --- | --- | --- |
| CCOCc1cn(-c2ccc(NC(=O)Nc3cc(C(C)C)ccc3C)cc2)nn1 [Compound 55e, 1-(4-(4-(ethoxymethyl)-1H-1,2,3-triazol-1-yl)phenyl)-3-(5-isopropyl-2-methylphenyl) urea] | 1 | 245 | 6.05 | 5.48 | > 50 |  |  |
| CCOCc1cn(-c2ccc(NC(=O)Nc3cccc(F)c3)cc2)nn1 [Compound 55o, 1-(4-(4-(ethoxymethyl)-1H-1,2,3-triazol-1-yl)phenyl)-3-(3-fluorophenyl)urea] |  |  |  |  |  | 4.67 |  |
| CCCCc1nc(-c2ccc(NC(=O)Nc3ccccc3C(F)(F)F)cc2)no1 [Compound 106, 1-(4-(5-butyl-1,2,4-oxadiazol-3-yl)phenyl)-3-(2-(trifluoromethyl)phenyl)urea] |  |  | 7.00 |  |  | 5.66 |  |
| CCOCc1cn(-c2ccc(NC(=O)Nc3ccccc3C)cc2)nn1 [Compound 20e] | 8.55 | 51.8 | 6.03 | 4.60 | > 50 |  |  |
| CCCCn1nnc(-c2ccc(NC(=O)Nc3ccccc3C(F)(F)F)cc2)n1 [Compound 51, 1-(4-(2-butyl-2H-tetrazol-5-yl)phenyl)-3-(2-(trifluoromethyl)phenyl)urea] | 0.6 | 6.7 | 6.10 |  |  | 5.26 | Normalized % infected cells [6]: 60%; effect on EBOV replication, in words [6]: able to affect EBOV replication |
| CC(C)CCc1cn(-c2ccc(NC(=O)Nc3cccc(F)c3)cc2)nn1 [Compound 55b, 1-(3-fluorophenyl)-3-(4-(4-isopentyl-1H-1,2,3-triazol-1-yl)phenyl)urea] | 0.2 | 183 |  |  |  | 5.74 | activity against HCV, in words [1]: best activity; DDX3 helicase activity compared with EI01D (DDX3 Helicase [7]; in words): approximately ten-fold more active; IC50 (DDX3 Helicase [7]): 0.2 µM |
| CCCCc1cn(-c2ccc(NC(=O)Nc3ccccc3C(F)(F)F)cc2F)nn1 [Compound 81, 1-(4-(4-butyl-1H-1,2,3-triazol-1-yl)-3-fluorophenyl)-3-(2-(trifluoromethyl)phenyl)urea] | 1.99 | 74.2 | 6.00 |  |  |  | Papp at 5 h, 0.5 mM [8]: 7.22 ×10⁻⁶ cm/s; PAMPA membrane retention (RM %) [8]: 30.4%; Metabolic stability (Sability %) [9]: 94%; solubility (Water Solubility Assay; [12]): 0.398 µM; solubility (Water Solubility Assay; [13]): 80.1 µg/mL |
| CCCCc1cn(-c2ccc(NC(=O)Nc3cc(OC4CCCC4)ccc3C)cc2)nn1 [Compound 55h, 1-(4-(4-butyl-1H-1,2,3-triazol-1-yl)phenyl)-3-(5-(cyclopentyloxy)-2-methylphenyl)urea] |  |  | 7.00 |  |  | 4.79 |  |
| CCCCc1cc(-c2ccc(NC(=O)Nc3ccccc3C(F)(F)F)cc2)no1 [Compound 102, 1-(4-(5-butylisoxazol-3-yl)phenyl)-3-(2-(trifluoromethyl)phenyl)urea] |  |  |  |  |  | 4.14 |  |
| CC(C)CCc1cn(-c2ccc(NC(=O)Nc3cccc4cnccc34)cc2)nn1 [Compound 55f, 1-(4-(4-isopentyl-1H-1,2,3-triazol-1-yl)phenyl)-3-(isoquinolin-5-yl)urea] | 0.9 | > 312 | 6.30 | 4.48 | > 50 |  |  |
| CCCCn1nnc(-c2ccc(NC(=O)Nc3ccccc3C)cc2)n1 [Compound 49, 1-(4-(2-butyl-2H-tetrazol-5-yl)phenyl)-3-(o-tolyl)urea] | 7.16 | 11.2 | 5.31 | 5.15 | > 50 | 5.28 | CC50 at 24 h [10]: > 1000 µM; CC50 at 48 h [10]: > 1000 µM; CC50 at 72 h [10]: > 1000 µM; pEC50 (HIV (PBMC)): 5.02; Papp at 5 h, 0.5 mM [8]: 7.57 ×10⁻⁶ cm/s; PAMPA membrane retention (RM %) [8]: 24.8%; Metabolic stability (Sability %) [9]: 95.6%; solubility (Water Solubility Assay; [12]): < 0.00316 µM; solubility (Water Solubility Assay; [13]): < 0.001 µg/mL |
| O=[N+]([O-])c1cccc(S(=O)(=O)Nc2ccccc2O)c1 [Compound 58a, N-(2-hydroxy)-3-nitro-phenylbenzenesulfonamide] | 204 | 215 | 6.43 | 5.00 | > 50 | 4.69 | CC50 at 48 h ([11]; DENV CC50, Huh7 cells, DENV experiment): 99.4 µM; CC50 at 48 h ([11]; WNV CC50, Huh7 cells, WNV experiment): 60.9 µM |
| COc1cc(NC(=O)Nc2ccccc2C(F)(F)F)ccc1-n1cc(CCC(C)C)nn1 [Compound 80, 1-(4-(4-isopentyl-1H-1,2,3-triazol-1-yl)-3-methoxyphenyl)-3-(2-(trifluoromethyl)phenyl)urea] |  |  | 6.40 |  |  | 5.13 |  |
| CC(C)CCc1cn(-c2ccc(NC(=O)Nc3ccccc3C(F)(F)F)cn2)nn1 [Compound 86, 1-(6-(4-isopentyl-1H-1,2,3-triazol-1-yl)pyridin-3-yl)-3-(2-(trifluoromethyl)phenyl)urea] |  |  | 6.00 |  |  | 5.52 |  |
| CCCCc1nnc(-c2ccc(NC(=O)Nc3ccccc3C(F)(F)F)cc2)o1 [Compound 112, 1-(4-(5-butyl-1,3,4-oxadiazol-2-yl)phenyl)-3-(2-(trifluoromethyl)phenyl)urea] |  |  | 6.00 |  |  | 5.26 |  |
| CCCCc1nc(-c2cccc(S(=O)(=O)Nc3ccccc3C(F)(F)F)c2)no1 [Compound 134, 3-(5-butyl-1,2,4-oxadiazol-3-yl)-N-(2-(trifluoromethyl)phenyl)benzenesulfonamide] |  |  | 6.00 |  |  | 5.51 |  |
| CCOCc1cn(-c2cccc(S(=O)(=O)Nc3ccccc3C(F)(F)F)c2)nn1 [Compound 66d, 3-(4-(ethoxymethyl)-1H-1,2,3-triazol-1-yl)-N-(2-(trifluoromethyl)phenyl) benzenesulfonamide] | > 58.6 | 58.6 |  | 5.21 | > 50 |  | CC50 at 24 h [10]: 450 µM; CC50 at 48 h [10]: 357 µM; CC50 at 72 h [10]: 703 µM; Normalized % infected cells [6]: 80%; effect on EBOV replication, in words [6]: able to affect EBOV replication; pEC50 (HIV (PBMC)): 4.59; IC50 (DDX3 Helicase [7]): 0.4 µM |
